Entries after “also recorded” stand apart in the source; their conditions may differ.
System: MDSCs
Assay: MDSC suppression assay: inhibition of T cell proliferation by in vitro generated MDSCs
Assay type: cell-based, mouse
Description: FIG. 2. […] (A) MDSCs were produced in vitro from mouse bone marrow cells using GM-CSF and G-CSF±BRQ (1 μM) or ATRA (10 μM) at the start of the 4-day culture. Cells tested for their ability to inhibit T cell proliferation (1:1 ratio), as in FIG. 5. Fresh BM=Uncultured bone marrow cells. (B) Similar to A, except that uridine (200 μM) was added to rescue the effect of BRQ. (C) Expression of IRF8 (upper) or SLFN4 (lower) was analyzed by qRT-PCR in Lin^− BM cells cultured as in A for 2 days. Data normalized to the vehicle.
In Vitro Development of MDSCs. Unfractionated mouse bone marrow cells were cultured in dishes with recombinant mouse G-CSF and recombinant mouse GM-CSF (40 ng/ml of each cytokine) for 96 hours to produce MDSCs, as described (Marigo et al. Immunity 32:790-802, 2010). After culture, cells were collected and analyzed by flow cytometry for the indicated cell surface markers. Uncultured or fresh bone marrow (BM) cells served as a negative control.
Cultured Cells Develop Potent Immunosuppressive Capacity. Using the methods described for FIG. 4, experiments were then performed to determine whether the cells generated from this BM culture system functionally behaved as MDSCs, based on their ability to inhibit T cell proliferation in vitro. To that end, fresh BM (i.e., no in vitro culture) or cultured BM cells (i.e., MDSCs at two different MDSC-to-T cell ratios of 1:1 or 1:2) were co-mixed in 96-well plates with CellTrace Violet (CTV)—stained syngeneic naïve splenocytes as a source of T cells and stimulated with or without soluble agonistic anti-CD3 monoclonal antibody (mAb) (1 μg/ml) for 72 hours. After co-culture, CTV dye dilution in the gated CD4^+ or CD8^+ T cell fractions within the splenocyte populations was analyzed by flow cytometry to determine the extent of proliferation based on dye dilution. In FIG. 5, top panels show CTV dye dilution, as determined by flow cytometry and depicted as a histogram; bottom panels indicate the percentage of proliferation, based on quantification of the histogram data. […]

Cc1c(-c2ccc(-c3ccccc3F)cc2)nc2ccc(F)cc2c1C(=O)O [BRQ, 6-Fluoro-2-(2′-fluoro-[1,1′-biphenyl]-4-yl)-3-methylquinoline-4-carboxylic acid]
ability of in vitro generated MDSCs to inhibit CD4+ or CD8+ T cell proliferation (BRQ 1 μM at start of 4-day culture, MDSC:T cell 1:1): inhibits MDSC-mediated immune suppression in vitro; also recorded: more effective than ATRA in limiting the formation of immune suppressive cells in vitro; also recorded: significantly reduced the ability of these in vitro-generated MDSCs to inhibit T cell proliferation; also recorded: mitigates MDSC suppressive activity; also recorded: significantly less suppressive to CD4^+ or CD8^+ T cell proliferation compared to cultures containing ATRA
ability of in vitro generated MDSCs to inhibit T cell proliferation, uridine rescue (BRQ 1 μM plus extracellular uridine 200 μM): exogenously supplied uridine blocked the effect of BRQ; also recorded: the addition of uridine antagonized the effect of BRQ and restored MDSC suppressive activity

Reference: US12594271B2, “Combination therapy for cancer” (Health Research, Inc., priority 2019, dated 2026)
